Results as given in patent US10441630B2, “Topical formulations and uses thereof” (OCULAR TECHNOLOGIES SARL, priority 2012, dated 2019).

Assay: Physical appearance, melt method, HCO-60 and compound 1001
Assay type: physicochemical
Details: 1001 4 wt %; for Resuspend in water: water at 40° C.; for Physical appearance at room temperature (25° C.): melt mixture
Experimental: The preparation of MNF encapsulating compound 1001 (neat oil) can be divided into two steps. […] […] To this melt polymer compound 1001 (˜20 mg), thermostated at 40° C., was added and mixed for homogenous distribution. […] (in refrigerator).
This aqueous solution was allowed to reach room temperature, under natural conditions. The pH of the solution was adjusted to 5.5 and the volume was made up with 2× phosphate buffer saline (pH 5.5) containing octoxynol-40 (0.01 wt %) and PVP-K-90 (1.2 wt %). The formulation was filtered through 0.2 μm nylon filter to remove any foreign material and obtain a clear homogenous aqueous RX-1001 formulation.
The results obtained for physical appearance of the mixture, different phases, at different temperatures and appearance of final formulation are summarized in Tables 3a-3c.

Final formulation (make up with 2X buffer containing 0.01% Oc-40) (HCO-60 1.0 wt %): Emulsion
Resuspend in water (HCO-60 1.0 wt %): Emulsion
Final formulation (make up with 2X buffer containing 0.01% Oc-40) (HCO-60 2.0 wt %): Pale yellow clear
Resuspend in water (HCO-60 2.0 wt %): Forms pale
Final formulation (make up with 2X buffer containing 0.01% Oc-40) (HCO-60 2.25 wt %): Pale yellow clear
Resuspend in water (HCO-60 2.25 wt %): Forms pale
Final formulation (make up with 2X buffer containing 0.01% Oc-40) (HCO-60 2.5 wt %): Pale yellow clear
Resuspend in water (HCO-60 2.5 wt %): Forms very
Final formulation (make up with 2X buffer containing 0.01% Oc-40) (HCO-60 2.75 wt %): Clear solution
Resuspend in water (HCO-60 2.75 wt %): Forms very
Final formulation (make up with 2X buffer containing 0.01% Oc-40) (HCO-60 3.0 wt %): Clear solution
Resuspend in water (HCO-60 3.0 wt %): Clear solution
Final formulation (make up with 2X buffer containing 0.01% Oc-40) (HCO-60 3.5 wt %): Clear solution
Resuspend in water (HCO-60 3.5 wt %): Clear solution
Final formulation (make up with 2X buffer containing 0.01% Oc-40) (HCO-60 4.0 wt %): Clear solution
Resuspend in water (HCO-60 4.0 wt %): Clear solution
Physical appearance at room temperature (25° C.) (HCO-60 1.0 wt %): Pale yellow half
Physical appearance at room temperature (25° C.) (HCO-60 2.0 wt %): Pale yellow
Physical appearance at room temperature (25° C.) (HCO-60 2.25 wt %): Pale yellow waxy
Physical appearance at room temperature (25° C.) (HCO-60 2.5 wt %): Pale yellow waxy
Physical appearance at room temperature (25° C.) (HCO-60 2.75 wt %): Pale yellow waxy
Physical appearance at room temperature (25° C.) (HCO-60 3.0 wt %): Pale yellow waxy
Physical appearance at room temperature (25° C.) (HCO-60 3.5 wt %): Pale yellow waxy
Physical appearance at room temperature (25° C.) (HCO-60 4.0 wt %): Pale yellow waxy
Structure (SMILES): C#CC[C@@H](O)/C=C/C=C/C#C[C@@H](O)CCCC(=O)OC(C)C [compound 1001]
